Measurements as given in US12539292B2, “BRM targeting compounds and associated methods of use” (Arvinas Operations, Inc., priority 2018, dated 2026).
Like-named read-outs stand apart in the source and are kept apart here.

Target: T1, BRM (Homo sapiens, UniProt P51531)
T1 construct: In-Cell Western Screen of BRM Degradation in SW1573 Cells; endogenous in cells; host or cells: SW1573
Assay: In-cell Western screen of BRM degradation in SW1573 cells (Dmax and DC50)
Format: cell-based
Experimental: In-Cell Western Screen of BRM Degradation in SW1573 Cells
To assess BRM degradation (Dmax and DC50), cells were seeded at 8000/well in 96-well black/clear-bottom plates in 180 μL DMEM growth media (containing 1% pen-strep, 1% HEPES and 10% FBS) per well. Plates were incubated overnight to allow adhesion. The next morning cells were treated by adding 20 μL of 10× compound (1% DMSO) to appropriate wells and returned to incubator for overnight (18-20 hours). The final DMSO concentration was 0.1%.
For processing, the plates were removed from incubator, the media was removed, and immediately 200 μL of cold (4° C.) DPBS was added to all wells. DPBS was then removed, and 50 μL of 4% paraformaldehyde (PFA) in DPBS (4° C.) was added to all wells, and the plates were incubated at room temperature for 20 minutes. PFA was then removed, and 200 μL of TBS-T containing 0.5% Triton X-100 was added to all wells, and the plates were incubated at room temperature for 30 minutes. TBS-T containing 0.5% Triton X-100 was then removed, and 50 μL of Li-Cor blocking solution was added, and the plates were incubated at room temperature for a minimum of one hour.
The next day plates were washed three times with TBS-T, 200 μL per well. Fifty (50) μL of secondary antibody cocktail in LI-COR blocking solution (anti-rabbit_800 nm and anti-mouse_680 nm) was added to all wells (diluted 1:5000). The plates were incubated at room temperature for at least one hour while protected from light. The plates were washed twice with TBS-T, 200 μL per well.
To read each plate TBS-T was removed, and each plate was inverted tapped on a paper towel. The plates were read on the LI-COR Odyssey with default intensity settings of 5.0 for both channels. LI-COR images were analyzed with the in-cell Western feature of Image Studio Lite.

[1] = BRM degradation, SW1573 cells, read-out: DC50
[2] = BRM degradation, SW1573 cells, when tested at the top concentration of between 0.3 and 10 μM, read-out: Dmax (%) (% degraded)
[3] = target protein degradation, read-out: BRM DC50
[4] = SW1573, % degraded, when tested at the top concentration of between 0.3 and 10 μM, read-out: BRM Dmax (%)

T1 sequence (P51531 whole entry): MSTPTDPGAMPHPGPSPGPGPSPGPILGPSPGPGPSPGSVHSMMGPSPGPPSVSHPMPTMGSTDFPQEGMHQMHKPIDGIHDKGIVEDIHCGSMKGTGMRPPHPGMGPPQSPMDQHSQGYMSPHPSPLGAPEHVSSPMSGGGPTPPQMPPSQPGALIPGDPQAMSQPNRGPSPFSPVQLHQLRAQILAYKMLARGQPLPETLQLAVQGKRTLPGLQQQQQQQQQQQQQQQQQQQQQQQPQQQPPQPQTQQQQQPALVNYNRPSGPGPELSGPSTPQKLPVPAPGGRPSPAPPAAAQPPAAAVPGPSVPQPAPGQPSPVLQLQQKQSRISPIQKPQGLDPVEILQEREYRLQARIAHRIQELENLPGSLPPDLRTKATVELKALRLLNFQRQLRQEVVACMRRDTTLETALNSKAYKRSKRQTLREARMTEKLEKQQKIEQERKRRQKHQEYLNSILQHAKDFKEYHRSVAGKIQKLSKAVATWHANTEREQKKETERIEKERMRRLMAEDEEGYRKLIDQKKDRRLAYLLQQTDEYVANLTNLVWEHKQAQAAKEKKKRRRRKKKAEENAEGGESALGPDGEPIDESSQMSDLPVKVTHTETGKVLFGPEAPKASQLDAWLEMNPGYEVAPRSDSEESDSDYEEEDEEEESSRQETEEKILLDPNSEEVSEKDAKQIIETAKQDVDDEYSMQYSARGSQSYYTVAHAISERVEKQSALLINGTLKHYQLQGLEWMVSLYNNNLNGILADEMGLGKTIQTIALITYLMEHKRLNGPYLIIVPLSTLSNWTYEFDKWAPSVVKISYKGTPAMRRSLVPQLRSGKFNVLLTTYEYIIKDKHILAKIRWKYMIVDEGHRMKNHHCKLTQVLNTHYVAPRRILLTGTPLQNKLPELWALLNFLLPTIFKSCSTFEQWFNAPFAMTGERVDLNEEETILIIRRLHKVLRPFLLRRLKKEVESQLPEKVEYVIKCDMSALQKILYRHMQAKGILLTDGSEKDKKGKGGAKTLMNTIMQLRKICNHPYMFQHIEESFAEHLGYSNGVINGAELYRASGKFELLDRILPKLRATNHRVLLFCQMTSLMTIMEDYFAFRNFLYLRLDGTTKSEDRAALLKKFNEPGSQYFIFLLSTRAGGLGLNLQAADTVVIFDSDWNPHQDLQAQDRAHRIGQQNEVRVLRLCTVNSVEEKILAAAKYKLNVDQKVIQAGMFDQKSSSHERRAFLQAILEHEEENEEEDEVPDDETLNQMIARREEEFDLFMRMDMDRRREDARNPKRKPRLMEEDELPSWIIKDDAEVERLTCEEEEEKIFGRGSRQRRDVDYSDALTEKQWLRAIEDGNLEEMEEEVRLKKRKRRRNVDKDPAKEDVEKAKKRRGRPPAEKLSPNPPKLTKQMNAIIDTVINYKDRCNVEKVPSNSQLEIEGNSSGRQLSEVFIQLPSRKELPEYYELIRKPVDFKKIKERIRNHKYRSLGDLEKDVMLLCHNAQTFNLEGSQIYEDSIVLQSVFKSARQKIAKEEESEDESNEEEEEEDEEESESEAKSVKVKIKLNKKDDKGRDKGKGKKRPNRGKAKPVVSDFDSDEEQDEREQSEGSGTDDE

SMILES	DC50 [1] [nM]	Dmax [2] [%]	also measured
Cc1ncsc1-c1ccc([C@H](C)NC(=O)[C@@H]2C[C@@H](O)CN2C(=O)[C@H](c2cc(OCCN3CCN(CCOc4cc(N5C6CCC5CN(c5cc(-c7ccccc7O)nnc5N)C6)ccn4)CC3)no2)C(C)C)cc1 [compound 46, (2S,4R)-1-[(2S)-2-[3-[2-(4-[2-[(4-[3-[3-amino-6-(2-hydroxyphenyl)pyridazin-4-yl]-3,8-diazabicyclo[3.2.1]octan-8-yl]pyridin-2-yl)oxy]ethyl]piperazin-1-yl)ethoxy]-1,2-oxazol-5-yl]-3-methylbutanoyl]-4-hydroxy-N-[(1S)-1-[4-(4-methyl-1,3-thiazol-5-yl)phenyl]ethyl]pyrrolidine-2-carboxamide]	> 30	50 to 75	
Cc1ncsc1-c1ccc([C@H](C)NC(=O)[C@@H]2C[C@@H](O)CN2C(=O)[C@@H](c2cc(OCCC3CCN(C(=O)[C@H]4C[C@H](CN5CCC([C@@H](C)n6cc(-c7cc(-c8ccccc8O)nnc7N)cn6)CC5)C4)CC3)no2)C(C)C)cc1 [compound 456, (2S,4R)-1-((R)-2-(3-(2-(1-((1R,3R)-3-((4-((R)-1-(4-(3-amino-6-(2-hydroxyphenyl)pyridazin-4-yl)-1H-pyrazol-1-yl)ethyl)piperidin-1-yl)methyl)cyclobutane-1-carbonyl)piperidin-4-yl)ethoxy)isoxazol-5-yl)-3-methylbutanoyl)-4-hydroxy-N-((S)-1-(4-(4-methylthiazol-5-yl)phenyl)ethyl)pyrrolidine-2-carboxamide]			DC50 [3]: > 30 nM
Cc1ncsc1-c1ccc([C@H](C)NC(=O)[C@@H]2C[C@@H](O)CN2C(=O)[C@@H](c2onc(OCCN3CCN(CCOc4cc(N5C6CCC5CN(c5cc(-c7ccccc7O)nnc5N)C6)ccn4)CC3)c2Cl)C(C)C)cc1 [compound 55, (2S,4R)-1-((2R)-2-(3-(2-(4-(2-((4-(3-(3-amino-6-(2-hydroxyphenyl)pyridazin-4-yl)-3,8-diazabicyclo[3.2.1]octan-8-yl)pyridin-2-yl)oxy)ethyl)piperazin-1-yl)ethoxy)-4-chloroisoxazol-5-yl)-3-methylbutanoyl)-4-hydroxy-N-((S)-1-(4-(4-methylthiazol-5-yl)phenyl)ethyl)pyrrolidine-2-carboxamide]	< 2.5	> 75	
Cc1ncoc1-c1ccc([C@H](C)NC(=O)[C@@H]2C[C@@H](O)CN2C(=O)[C@H](c2cc(OCCN3CCC(O[C@H]4C[C@H](Oc5cc(N6C7CCC6CN(c6cc(-c8ccccc8O)nnc6N)C7)ccn5)C4)CC3)no2)C(C)C)cn1 [compound 229, (2S,4R)-1-((2S)-2-(3-(2-(4-((1r,3S)-3-((4-(3-(3-amino-6-(2-hydroxyphenyl)pyridazin-4-yl)-3,8-diazabicyclo[3.2.1]octan-8-yl)pyridin-2-yl)oxy)cyclobutoxy)piperidin-1-yl)ethoxy)isoxazol-5-yl)-3-methylbutanoyl)-4-hydroxy-N-((S)-1-(6-(4-methyloxazol-5-yl)pyridin-3-yl)ethyl)pyrrolidine-2-carboxamide]	> 30		
Cc1ncsc1-c1ccc([C@H](C)NC(=O)[C@@H]2C[C@@H](O)CN2C(=O)[C@@H](c2cc(OCCN3CCN(CCOc4cc(N5C6CCC5CN(c5cc(-c7ccccc7O)nnc5N)C6)ccn4)[C@H](C)C3)no2)C(C)C)cc1 [compound 139, (2S,4R)-1-((2R)-2-(3-(2-((3R)-4-(2-((4-(3-(3-amino-6-(2-hydroxyphenyl)pyridazin-4-yl)-3,8-diazabicyclo[3.2.1]octan-8-yl)pyridin-2-yl)oxy)ethyl)-3-methylpiperazin-1-yl)ethoxy)isoxazol-5-yl)-3-methylbutanoyl)-4-hydroxy-N-((S)-1-(4-(4-methylthiazol-5-yl)phenyl)ethyl)pyrrolidine-2-carboxamide]	< 2.5	> 75	
Cc1ncsc1-c1ccc(CNC(=O)[C@@H]2C[C@@H](O)CN2C(=O)[C@@H](c2cc(OCCN3CCN(CCOCCn4cc(-c5cc(-c6ccccc6O)nnc5N)cn4)CC3)no2)C(C)C)cc1 [compound 124, (2S,4R)-1-((R)-2-(3-(2-(4-(2-(2-(4-(3-amino-6-(2-hydroxyphenyl)pyridazin-4-yl)-1H-pyrazol-1-yl)ethoxy)ethyl)piperazin-1-yl)ethoxy)isoxazol-5-yl)-3-methylbutanoyl)-4-hydroxy-N-(4-(4-methylthiazol-5-yl)benzyl)pyrrolidine-2-carboxamide]	> 30	> 75	
CC(C)[C@@H](C(=O)N1C[C@H](O)C[C@H]1C(=O)N[C@@H](C)c1ccc(-c2c(F)cnn2C)cc1)c1cc(OCCN2CCN(CCOc3cc(N4C5CCC4CN(c4cc(-c6ccccc6O)nnc4N)C5)ccn3)CC2)no1 [compound 410, (2S,4R)-1-((2R)-2-(3-(2-(4-(2-((4-(3-(3-amino-6-(2-hydroxyphenyl)pyridazin-4-yl)-3,8-diazabicyclo[3.2.1]octan-8-yl)pyridin-2-yl)oxy)ethyl)piperazin-1-yl)ethoxy)isoxazol-5-yl)-3-methylbutanoyl)-N-((S)-1-(4-(4-fluoro-1-methyl-1H-pyrazol-5-yl)phenyl)ethyl)-4-hydroxypyrrolidine-2-carboxamide]			Dmax [4]: > 75%; DC50 (degradation of BRM, read-out: BRM DC50): < 2.5 nM
Cc1n[nH]c(C)c1-c1ccc([C@H](C)NC(=O)[C@@H]2C[C@@H](O)CN2C(=O)[C@H](c2cc(OCCN3CCC(O[C@H]4C[C@H](Oc5cc(N6C7CCC6CN(c6cc(-c8ccccc8O)nnc6N)C7)ccn5)C4)CC3)no2)C(C)C)cc1 [compound 377, (2S,4R)-1-((2S)-2-(3-(2-(4-((1r,3S)-3-((4-(3-(3-amino-6-(2-hydroxyphenyl)pyridazin-4-yl)-3,8-diazabicyclo[3.2.1]octan-8-yl)pyridin-2-yl)oxy)cyclobutoxy)piperidin-1-yl)ethoxy)isoxazol-5-yl)-3-methylbutanoyl)-N-((S)-1-(4-(3,5-dimethyl-1H-pyrazol-4-yl)phenyl)ethyl)-4-hydroxypyrrolidine-2-carboxamide]			Dmax [4]: > 75%; DC50 [3]: 10 to 30 nM
Cc1ncsc1-c1ccc([C@H](CO)NC(=O)[C@@H]2C[C@@H](O)CN2C(=O)[C@H](c2cc(OCCN3CCN(CCOc4cc(N5C6CCC5CN(c5cc(-c7ccccc7O)nnc5N)C6)ccn4)CC3)no2)C(C)C)cc1 [compound 158, (2S,4R)-1-((2S)-2-(3-(2-(4-(2-((4-(3-(3-amino-6-(2-hydroxyphenyl)pyridazin-4-yl)-3,8-diazabicyclo[3.2.1]octan-8-yl)pyridin-2-yl)oxy)ethyl)piperazin-1-yl)ethoxy)isoxazol-5-yl)-3-methylbutanoyl)-4-hydroxy-N-((R)-2-hydroxy-1-(4-(4-methylthiazol-5-yl)phenyl)ethyl)pyrrolidine-2-carboxamide]	> 30		Dmax (BRM degradation, SW1573 cells, tested at the top concentration of between 0.3 and 10 μM, read-out: Dmax (%) (% degraded)): > 75%
Cc1ncsc1-c1ccc([C@H](C)NC(=O)[C@@H]2C[C@@H](O)CN2C(=O)[C@@H](c2cc(N3CC(CN4CC(COc5cc(N6C7CCC6CN(c6cc(-c8ccccc8O)nnc6N)C7)ccn5)C4)C3)no2)C(C)C)cc1 [compound 519, (2S,4R)-1-((2R)-2-(3-(3-((3-(((4-(3-(3-amino-6-(2-hydroxyphenyl)pyridazin-4-yl)-3,8-diazabicyclo[3.2.1]octan-8-yl)pyridin-2-yl)oxy)methyl)azetidin-1-yl)methyl)azetidin-1-yl)isoxazol-5-yl)-3-methylbutanoyl)-4-hydroxy-N-((S)-1-(4-(4-methylthiazol-5-yl)phenyl)ethyl)pyrrolidine-2-carboxamide]			DC50 (BRM degradation, read-out: BRM DC50): > 30 nM
Cc1ncsc1-c1ccc(CNC(=O)[C@@H]2C[C@@H](O)CN2C(=O)[C@@H](c2cc(OCCOCCOCCOCCn3cc(-c4cc(-c5ccccc5O)nnc4N)cn3)no2)C(C)C)cc1 [compound 17, (2S,4R)-1-((R)-2-(3-(2-(2-(2-(2-(4-(3-amino-6-(2-hydroxyphenyl)pyridazin-4-yl)-1H-pyrazol-1-yl)ethoxy)ethoxy)ethoxy)ethoxy)isoxazol-5-yl)-3-methylbutanoyl)-4-hydroxy-N-(4-(4-methylthiazol-5-yl)benzyl)pyrrolidine-2-carboxamide]	2.5 to 10	> 75	
Cc1ncsc1-c1ccc([C@H](C)NC(=O)[C@@H]2C[C@@H](O)CN2C(=O)[C@H](c2cc(OCCOCCOCCCCN3CCC4(CC3)CCN(c3cc(-c5ccccc5O)nnc3N)CC4)no2)C(C)C)cc1 [compound 67, (2S,4R)-1-((S)-2-(3-(2-(2-(4-(9-(3-amino-6-(2-hydroxyphenyl)pyridazin-4-yl)-3,9-diazaspiro[5.5]undecan-3-yl)butoxy)ethoxy)ethoxy)isoxazol-5-yl)-3-methylbutanoyl)-4-hydroxy-N-((S)-1-(4-(4-methylthiazol-5-yl)phenyl)ethyl)pyrrolidine-2-carboxamide]	> 30		
